Laboratory results reported in article PMC6934825 (Scientific Reports, 2019).
“Also recorded” adds a separate entry of the source.

Experiments:
[1] = plasma in vitro; cited from earlier work
[2] = clinical trials, acute respiratory distress syndrome; cited from earlier work
[3] = in vivo study in male rats; details: cited from earlier work
[4] = human, up to 120 minutes

In the case of `CSCC[C@H](NC(=O)[C@@H]1CCCN1C(=O)CNC(=O)[C@H](CCCCN)NC(=O)[C@H](Cc1cnc[nH]1)NC(=O)[C@H](CO)NC(=O)[C@H](CC(C)C)NC(=O)[C@H](CCCNC(=N)N)NC(=O)[C@@H]1CCCN1C(=O)[C@H](CCCNC(=N)N)NC(=O)[C@@H]1CCC(=O)N1)C(=O)N1CCC[C@H]1C(=O)N[C@@H](Cc1ccccc1)C(=O)O` [[Pyr^1]apelin-13], the “degradation in rat and mouse plasma compared to dog, monkey and human plasma” value [1] is listed as “more rapid degradation”.

In the case of “GSK2586881: recombinant human ACE2 for treatment of acute respiratory distress syndrome”, the tolerability [2] is listed as “well-tolerated”.

For “pGlu Arg Pro Arg Leu Ser His Lys Gly Pro Met Pro Phe”, the fragment found [3] is given as “[Pyr^1]apelin-13(1–12); also recorded: [Pyr^1]apelin-13(1–10); also recorded: [Pyr^1]apelin-13(1–6)” and the cleaved bond [4] is given as “Pro10-Met11, major, 120 minutes; also recorded: Ser6-His7, major, 120 minutes; also recorded: Leu5-Ser6, 120 minutes”.
